Assay results from patent US9630964B2, “Fluoro-9-methyl-β-carbolines” (priority 2013, dated 2017).

Assays:
quotient Bax/Bcl2 = assay: Quantitative RT-PCR, quotient Bax/Bcl2 (apoptosis marker) in SH-SY5Y cells; type: cell-based, human; settings: 30 μM each, except after 2-day exposition
Method: SH-SY5Y cell lines, which were provided by the institute of human genetics of university hospital Eppendorf and which they in turn received from Braunschweig resource center, were used again for the RT-PCR experiments (reverse transcriptase polymerase chain reaction) carried out for this purpose.
The cells were incubated in MEM (Minimum essential medium, Life Technologies) with 10% FCS (fetal calf serum, Biochrom AG) and penicillin/streptomycin (Biochrom AG). The cells were seeded with a density of 1×10^5 cells/cm^2 in 25 cm^2 cell culture bottles (Falcon, cell culture treated) with 5 mL medium. […]
The RNA-isolation was done with the HighPure RNA Isolation kit of the company Roche. […] The concentration of RNA was measured with nanoDrop spectrometer and the RNA integrity was determined with the aid of the Bioanalyzer 2100 (Agilent). […]
After the reaction, this run was diluted 1:4 and thereof 2 μL per each quantitative RT-PCR were used. This was performed in a LightCycler 480 under standard conditions in the SybrGreen format with annealing temperatures determined for each primer individually. […]
The specificity was verified by melting curve analysis and subsequent gel electrophoresis. For each PCR the PCR efficiency and the Cq value was determined by the program LinRegPCR and these were used in further calculations. […]

[1] = system: BDNF (brain derived neurotrophic factor); assay: Examination on cellular level: concentration of BDNF; type: cell-based
hearing threshold = assay: Acoustically evoked potentials: hearing threshold after acoustic trauma; type: in vivo; settings: guinea pig, total 0.18 mg per ear
Method: To trigger an acoustic trauma, guinea pigs were anesthetized with 60 mg/kg ketamine and 8 mg/kg xylazine. Then Bepanten ointment (Bayer) was administered to the eyes and the animal was put in a soundproof chamber. A calibrated speaker was placed directly above the head of the animal, wherein it was set to emit a half octave band, centered around 8 kHz, with a volume of 110 dB for duration of 30 minutes.
As measure for evaluation of the hearing threshold of the guinea pig acoustically evoked potentials were measured. Therefore, the electrophysiological activity of the nerve cells in the brain stem that forward impulses from the inner ear was derived after sonication of the ear with 8, 11.3, 16, 22.6 and 32 kHz. The sonification was carried out ascendingly from 0 dB to 90 dB in single steps of 5 dB.
The measurement was carried out 3 days before the acoustic trauma (D-3), 30 minutes after the acoustic trauma (D0) as well as 14 days after the acoustic trauma (D14).
Per animal one ear was not treated and used as intra-individual control (hierin partly abbreviated to “contr.”) and the second ear was treated with 6-fluoro-9-methyl-β-carboline. Therefore, one hour after the acoustic trauma a dose of 0.12 mg 6-fluoro-9-methyl-β-carboline (in a hydrogel as vehicle) was administered intratympanically. 3 days after the acoustic trauma a further intratympanic administration of 0.06 mg 6-fluoro-9-methyl-β-carboline was carried out. The measurements were conducted on four guinea pigs (n=4).
Afterwards, the remaining shift of hearing threshold (also named as permanent shift of hearing threshold) was determined from the measured values before the acoustic trauma (D-3) and after 14 days (D14). From the measured values directly after the acoustic trauma (D0) and after 14 days (D14) the recovery from the trauma (D0-D14) was also determined.
Analogous to the above performed experiments with 6-fluoro-9-methyl-β-carboline, also corresponding experiments with 9-methyl-β-carboline were performed. The experimental procedure was nearly identical, wherein of course 9-methyl-β-carboline instead of 6-fluoro-9-methyl-β-carboline was used. The total dose of 9-methyl-β-carboline was here 0.2 mg and 0.35 mg per ear, respectively.

## Cn1c2ccc(F)cc2c2ccncc21 [6F9MβC, 6-fluoro-9-methyl-β-carboline]
Quotient Bax/Bcl2
  quotient Bax/Bcl2 compared to 9MβC: significantly lower
[1]
  increase of the concentration of BDNF: up to three times
Hearing threshold; 8 kHz
  improved recovery of hearing threshold (D0-D14) vs untreated ear: approximately 5 dB
Hearing threshold; 11.3 kHz
  improved recovery of hearing threshold (D0-D14) vs untreated ear: ~25 dB
  reduction of the hearing threshold (permanent shift D14-D-3) vs untreated control: approximately 20 dB
Hearing threshold; 16 kHz
  improved recovery of hearing threshold (D0-D14) vs untreated ear: ~20 dB
  reduction of the hearing threshold (permanent shift D14-D-3) vs untreated control: ~30 dB
